1 molecule from publication PMC9745799, “Polymyxin Stereochemistry and Its Role in Antibacterial Activity and Outer Membrane Disruption” (ACS Infectious Diseases, 2022) can be followed below.

Experiment [1] deals with K. pneumoniae ATCC 13883. It is filed as cell-based. The following applies: ATCC 13883, 18 h. As for the experimental part:
(§1) MICs of compounds were determined following CLSI guidelines using the microbroth dilution method in polypropylene plates. Selected Gram-negative bacterial strains (see Table S2 for strain sources) were taken from glycerol stocks and grown overnight on blood agar. Individual colonies were selected and grown in Tryptic Soy Broth (TSB) to an OD600 of 0.5. Compounds were diluted in Mueller Hinton Broth (MHB) supplemented with Mg^2+ and Ca^2+ at final concentrations of 12 and 20 mg/L, respectively (CAMHB). 50 μL was used for each well, and compounds were assessed in triplicates. Bacterial culture was diluted in CAMHB to 10^6 CFU/mL, yielding 5 × 10^5 CFU/mL upon addition of 50 μL of culture to 50 μL of compound solution. Positive and negative (sterility) controls were present on each plate. Plates were sealed with a semipermeable membrane and incubated for 22 h (A. baumannii) or 18 h (other strains) under shaking at 37 °C.

The subject of experiment [2] is E. coli ATCC 25922. Format: cell-based. The settings on record: ATCC 25922, 18 h. As for the experimental part: as §1
For experiment [3], the system named is P. aeruginosa NRZ03961. It is filed as cell-based. The following applies: NRZ03961, 18 h. On the procedure: as §1
Experiment [4] deals with P. aeruginosa ATCC 27853. It is filed as cell-based. The following applies: ATCC 27853, 18 h. On the procedure: as §1
Experiment [5] has as its system E. coli mcr-1. It is filed as cell-based. The settings on record: CLSI microbroth dilution, CAMHB, 18 h, 37 °C, triplicate. As for the experimental part:
as §1
(Dilution methods test growth across graded concentrations, often in twofold steps.)

For experiment [6], the system named is P. aeruginosa ATCC 10145. Format: cell-based. The following applies: ATCC 10145, 18 h. As for the experimental part: as §1
In experiment [7] the test system is E. coli JW3596 (ΔwaaC). Format: cell-based. The following applies: truncated LPS, CLSI microbroth dilution, CAMHB, 18 h, 37 °C, triplicate. As for the experimental part: as §1
Experiment [8] deals with A. baumannii ATCC 19606. It is filed as cell-based. The following applies: ATCC 19606, 22 h. As for the experimental part:
as §1

Experiment [9] concerns P. aeruginosa 2018-007. Format: cell-based. The following applies: 2018-007, 18 h. On the procedure: as §1
Experiment [10] relates to E. coli JW3594 (ΔwaaD). It is filed as cell-based. The following applies: truncated LPS, CLSI microbroth dilution, CAMHB, 18 h, 37 °C, triplicate. As for the experimental part: as §1
Experiment [11] has as its system E. coli BW25113. It is filed as cell-based. The settings on record: BW25113, 18 h. On the procedure: as §1
Experiment [12] concerns E. coli ATCC 25922 (smooth LPS). Description: NPN uptake assay (outer membrane disruption). It is filed as cell-based. The settings on record: NPN fluorescence after 1 h at RT, 5 mM HEPES pH 7.2 + 20 mM glucose, triplicates, result in words. On the procedure:
(§2) Bacteria were taken from glycerol stocks and grown in TSB overnight. Cultures were diluted either 50 or 100 times in Lysogeny Broth (LB) and grown at 37 °C to an OD600 of 0.5. Test compounds were prepared in HEPES buffer (5 mM, pH 7.2 + 20 mM glucose) and serially diluted (25 μL per well) on 1/2 the area of black 96-well plates with a transparent bottom. N-Phenyl-1-naphthylamine (NPN) was dissolved in acetone (0.5 mM) and diluted to 40 μM in HEPES buffer (5 mM, pH 7.2 + 20 mM glucose). 25 μL of the NPN solution was added to each well. The bacterial suspension was spin down (1000g, 10 min), and the remaining cell pellet was resuspended in half the original volume of HEPES buffer (5 mM, pH 7.2 + 20 mM glucose). 50 μL of bacterial suspension was added to each well. NPN fluorescence was measured after 1 h of incubation at RT with λex 355 ± 20 nm and λem 420 ± 20 nm. The measured fluorescence signal was corrected for NPN fluorescence in the absence of compounds (bacteria in buffer + NPN) and presented as relative fluorescence units (RFUs).

The subject of experiment [13] is polymyxin-resistant, mcr-1 positive E. coli. As to the kind of experiment: NPN uptake assay (outer membrane disruption). Format: cell-based. The following applies: E. coli mcr-1 positive; NPN fluorescence after 1 h at RT, highest concentration tested 32 μg/mL, triplicates; result in words. As for the experimental part:
as §2

Experiment [14] deals with E. coli BW25113 (rough LPS). Description: NPN uptake assay (outer membrane disruption). Format: cell-based. The following applies: NPN fluorescence after 1 h at RT, 5 mM HEPES pH 7.2 + 20 mM glucose, triplicates, result in words. On the procedure:
as §2

Experiment [15] concerns LPS from E. coli (O55:B5). As to the kind of experiment: Isothermal titration calorimetry (ITC), LPS binding. The settings on record: compound (1 mM) into LPS (20 µM), 20 mM HEPES pH 7, 37 °C, mean and SD of three experiments. On the procedure: Stock solutions of LPS (10 mg/mL, 0.5 mM) were prepared in 20 mM HEPES at pH 7 by suspension, sonication, and temperature cycling between 4 and 60 °C and stored overnight prior to use. LPS from E. coli (O55:B5) was used. Lipopeptide solutions (1 mM in 20 mM HEPES, pH 7) were titrated into a suspension of LPS (0.020 mM) in the same buffer. Control titrations included the titration of peptide into buffer and buffer into the LPS suspension to determine the corresponding heat of dilution. All binding experiments were performed using a MicroCal PEAQ-ITC Automated microcalorimeter (Malvern Panalytical Ltd., Malvern, UK). The samples were equilibrated to 37 °C prior to measurement. The titrations were conducted at 37 °C under constant stirring at 750 rpm. Each experiment consisted of an initial injection of 0.3 μL followed by 25 separate injections of 1.5 μL into the sample cell of 200 μL. The time between each injection was 180 s, and the measurements were performed with the reference power set at 5 μcal s^–1 and the feedback mode set at “low”. For all calculations performed, an estimated molecular weight of 20 kDa for LPS was applied. The calorimetric data thus obtained were analyzed using MicroCal PEAQ-ITC Analysis Software Version 1.20 (Malvern Panalytical Ltd., Malvern, UK), where the integrated heat signal is corrected for the heat of dilution of the titrant.

Experiment [16] deals with polymyxin-resistant (mcr-1 positive) E. coli. Description: microbe, parasite or virus in culture. It is filed as cell-based. The following applies: E. coli mcr-1, checkerboard. As for the experimental part:
(§3) Selected Gram-negative bacterial strains were taken from glycerol stocks and grown overnight on blood agar. A single colony was inoculated in TSB broth at 37 °C until an optical density of 0.5 at 600 nm (OD600) was reached. The bacterial suspension was diluted in freshly prepared CAMHB to 10^6 CFU/mL. Compounds were diluted along the plate, using 25 μL of CAMHB for each dilution. Antibiotic concentrations were prepared separately in a multiwell reservoir, including a control without antibiotic. Of each antibiotic stock, 25 μL was added to three columns to obtain triplicates for every condition. To each 50 μL containing well was then added 50 μL of the 10^6 CFU/mL bacterial suspension, and the plates were sealed with breathable seals. After incubation for 18 h at 37 °C while shaking, the seals were removed and the density of the bacterial suspensions was measured at 600 nm (OD600) using a Tecan Spark plate reader. The OD600 values were transformed to a 2D gradient with the negative control as the minimum and the positive control as the maximum. The FICI was calculated using the following equation: [drawing 1] with MSCant and MSCcomp indicating the optimal synergistic concentration of antibiotic and compound and MICant and MICcomp, the corresponding MICs of the individual compounds. An FICI ≤ 0.5 indicates synergy.[48]

The subject of experiment [17] is polymyxin-sensitive E. coli ATCC 25922. Description: microbe, parasite or virus in culture. Format: cell-based. As for the experimental part:
as §3

Values after ≈ are worked out from the molar mass of the structure shown. Values joined by “and” are separate entries in the source; they are usually repeats but may differ in a detail not shown here. Equal entries are not always repeated. Positions of bridges follow the written chain, without caps; N, C: chain ends. Non-standard residues stand in square brackets, D forms with d. Residues, ends and D or L forms follow the SMILES beside them. *: point of attachment. Heptanoyl = CCCCCCC(=O)*; Dab = NCC[C@H](N)C(=O)O

Regarding `CCCCCCC(=O)N[C@@H](CCN)C(=O)N[C@H](C(=O)N[C@@H](CCN)C(=O)N[C@H]1CCNC(=O)[C@H]([C@@H](C)O)NC(=O)[C@H](CCN)NC(=O)[C@H](CCN)NC(=O)[C@H](CC(C)C)NC(=O)[C@@H](Cc2ccccc2)NC(=O)[C@H](CCN)NC1=O)[C@@H](C)O` [PmxB4, polymyxin B4] (Heptanoyl-[Dab]T[Dab][Dab][Dab][dF]L[Dab][Dab]T; lactam 4-C), the MIC (as a rule, the lowest concentration found to suppress growth) was 0.125 µg/mL (≈ 0.106 µM) in experiment [1]; 0.25 µg/mL (≈ 0.213 µM) in experiment [2]; 0.25 µg/mL (≈ 0.213 µM) in experiment [3]; 0.25 µg/mL (≈ 0.213 µM) in experiment [4]; 4 µg/mL (≈ 3.4 µM) in [5]; 0.25 µg/mL (≈ 0.213 µM) in [6]. Further, the MIC in experiment [7] amounted to 0.06 µg/mL (≈ 0.051 µM); in experiment [8], 0.5 µg/mL (≈ 0.425 µM); in experiment [9], 0.5 µg/mL (≈ 0.425 µM); in experiment [10], 0.06 µg/mL (≈ 0.051 µM); in experiment [11], 0.5 µg/mL (≈ 0.425 µM). Besides, the figures for the “OM disruption (NPN uptake)” value in [12], in experiment [13] and in [14] were “potent OM disruption”, “most effective OM disruption” and “potent OM disruption”, respectively. For the same molecule, the “ΔΔH, maximum enthalpy observed after subtraction of dilution control” value in [15] is reported as -7.86 ± 0.10 kcal/mol. Moreover, the MIC alone is recorded as 8 µg/mL in experiment [16] (substance alone); 1 µg/mL in experiment [17] (ATCC 25922, 18 h); 2 µg/mL in experiment [17] (E. coli ATCC 25922, checkerboard, substance alone). Besides, the FICI in experiment [16] (combination with rifampicin, CAMHB, 18 h, 37 °C, OD600, FICI ≤ 0.5 indicates synergy) was 0.16 and 0.163.
